# Laboratory results: US12198788B2, “System for detecting an intraoral disease and determining a personalized treatment scheme and method of doing same” (priority 2017, dated 2025)
# Legend:
# dental plaque microbes = experiment: Culture of dental plaque microbes, streak applied to inoculum, 2 days incubation (FIG. 5); format: cell-based; settings: 2 days of incubation
# [1] = test system: dental pulp tissue (dental pulp extraction with chronic pulpitis); experiment: Live bacterial cell counting after cannabinoid treatment, dental pulp tissue; format: cell-based, human
# Description: (§1) Summary: The method includes: • a. randomized sampling of oral plaque biofilm from different consumers with 0-+4 DPSI, dental pulp extraction with chronic pulpitis; • b. cultivation of the samples in incubator with 37° C., for 1 day. The colonies underwent treatment with different types of compounds CBC, CBD, CBG, CBGA, CBN for 5 minutes; • c. staining with fluorescent special dyes for live bacterial cells, following the cannabinoid compounds' treatment and using one referral without cannabinoids treatment; • d. mounting on 6 channel micro slide dishes with 0.1 high; • e. imaging with Cytetion 5 Biotek microscope on 40 magnification, analyzing and running live cell counting.
# Experimental methods: FIG. 6 depicts the steps of the methodology used in this protocol. The methodology includes the following steps: • a. Sample cultivation: Samples are collected with Flexi Grip 1702 Paro interdental brush. Cultivation on AGAR Petri Dish 100/15 mm incubated for 24 hours in 37° C. • b. Compound Treatment: The colonies are treated with 25%, 12.5% dilutions from 5 different type extracts from grower A+B. 0.5 μL compound were place in each vial, 3 colony spots were added, the mixture was agitated in centrifuge with 6-8.000 rpm for 1.5 min and suspended in 500 μL PBS. • c. Staining Mounting: Staining kit Bacstain—CTC Rapid Staining kit BS02 was used. All 5 samples and 1 referral were stained. […]
# [2] = test system: human oral biofilms (dental plaque); experiment: Live bacterial cell counting (CTC staining, Cytation 5 imaging) after cannabinoid treatment of dental plaque colonies; format: cell-based
# Description: This study evaluates different extracts/compounds on different types of human oral biofilms that normally are plaque-generating, further inducing light to severe periodontal diseases, as scored by DPSI (Dutch periodontic screening index).
# as §1, with “counting. […]” for “counting.”
# The same procedure was employed on the second slide with the cells treated with 25% dilution of the cannabinoid of grower B. Accordingly slide 3 had the cells from grower A with 12.5% dilution and slide 4 had the cells 12.5% dilution from grower B. • d. […] Imaging modes include fluorescence, brightfield, color brightfield and phase contrast for a broad range of applications including live cell imaging, phenotypic assays, and 3D spheroids. […]
# [3] = test system: dental bacteria taken from various patients (oral flora); experiment: In vitro determination of sensitivity of dental biofilm flora from individual patients to cannabinoid test panels; format: cell-based
# Excerpt: Methods of the present invention are hereby exemplified. The trial included two stages: • a. Stage 1: In vitro determination of sensitivity of dental biofilm flora from individual patients to cannabinoid test panels. • b. Stage 2: Effectiveness of toothpaste compounded to individual patient's best cannabinoid panel formulations. Stage 1: In Vitro Determination of Sensitivity of Dental Biofilm Flora from Individual Patients to Cannabinoid Test Panels.
# Ten (10) subjects (patients A-J) were involved in the trial. Dental biofilm was collected of these subjects by means of swabs, scrapes and other devices. The bacteria of this dental biofilm were characterized by conventional methods such as growth on selective media, microscopic examination and lab on-chip-laser analysis (e.g. Parochip).
# Patient's bacteria from patients A-J were tested in vitro on substrates seeded with a panel of cannabinoids as illustrated in table 1 below:
# Column Panels: • 1=CBDA; • 2=CBDA+CBNA; • 3=CBDA+CBNA+CBGA; • 4=CBDA+CBNA+CBGA+CBCA; • 5=CBDA+CBNA+CBGA+CBCA+CBNDA; • 6=Chlorohexadine control, and • 7=control with no antiseptic.
# Results of in vitro testing are defined in terms of efficacy of panel cannabinoids in in vitro suppressing oral flora, in increasing scale of: • −, +, ++, +++, ++++, +++++
smiles,measurement,setting,value
"C=C(C)[C@@H]1CCC(C)=C[C@H]1c1c(O)cc(CCCCC)cc1O [CBD, Cannabidiol]",bacterial growth at streak applied to inoculum,dental plaque microbes,no bacterial growth
same,reduction from the live bacterial cells,[1],92%
"CCCCCc1cc(O)c(C/C=C(\C)CCC=C(C)C)c(O)c1C(=O)O [CBGA, Cannabigerolic acid]",most efficient compound on the plaque of the consumer,"[2]; 25% dilution, grower A, FIG. 10",most efficient
same,reduction from the live bacterial cells,[2]; dental plaque,95%
"C=C(C)[C@@H]1CCC(C)=C[C@H]1c1c(O)cc(CCCCC)c(C(=O)O)c1O [Panel 1, Cannabidiolic acid]",effectiveness against the flora (in words),[3]; flora of patient B,effective
same,in vitro effectiveness of cannabinoids on dental bacteria,[3]; oral flora sample of patient A,++
same,in vitro effectiveness of cannabinoids on dental bacteria,[3]; oral flora sample of patient B,+++++
same,in vitro effectiveness of cannabinoids on dental bacteria,[3]; oral flora sample of patient C,++++
same,in vitro effectiveness of cannabinoids on dental bacteria,[3]; oral flora sample of patient D,+
same,in vitro effectiveness of cannabinoids on dental bacteria,[3]; oral flora sample of patient E,+++
same,in vitro effectiveness of cannabinoids on dental bacteria,[3]; oral flora sample of patient F,−
same,in vitro effectiveness of cannabinoids on dental bacteria,[3]; oral flora sample of patient G,+++++
same,in vitro effectiveness of cannabinoids on dental bacteria,[3]; oral flora sample of patient H,++
same,in vitro effectiveness of cannabinoids on dental bacteria,[3]; oral flora sample of patient I,−
same,in vitro effectiveness of cannabinoids on dental bacteria,[3]; oral flora sample of patient J,−
"[H]/N=C(\N/C(=N/[H])NCCCCCCNC(=N)NC(=N)Nc1ccc(Cl)cc1)Nc1ccc(Cl)cc1 [Panel 6, Chlorhexidine, reference compound]",in vitro effectiveness of cannabinoids on dental bacteria,[3]; oral flora sample of patient A,++
same,in vitro effectiveness of cannabinoids on dental bacteria,[3]; oral flora sample of patient B,++
same,in vitro effectiveness of cannabinoids on dental bacteria,[3]; oral flora sample of patient C,+
same,in vitro effectiveness of cannabinoids on dental bacteria,[3]; oral flora sample of patient D,++
same,in vitro effectiveness of cannabinoids on dental bacteria,[3]; oral flora sample of patient E,−
same,in vitro effectiveness of cannabinoids on dental bacteria,[3]; oral flora sample of patient F,−
same,in vitro effectiveness of cannabinoids on dental bacteria,[3]; oral flora sample of patient G,+++
same,in vitro effectiveness of cannabinoids on dental bacteria,[3]; oral flora sample of patient H,+
same,in vitro effectiveness of cannabinoids on dental bacteria,[3]; oral flora sample of patient I,++
same,in vitro effectiveness of cannabinoids on dental bacteria,[3]; oral flora sample of patient J,−
